Data reported in patent US20040126792A1, “Synthesis and applications of trinucleotide pCpCpA-3'-NH-aminoacyl derivatives” (priority 2002, published 2004).

Key:
[1] = tested on: S30 extract peptidyltransferase; experiment: Peptidyltransferase gel-shift assay in the presence of antibiotics, S30 extract; format: biochemical, E. coli; settings: 100 μM antibiotic, substrates CCA-Met-Biotin and 32P-CCA-NH-Phe, 37° C.
Protocol: (§1) Assay reactions were carried out with: 50S or 70S subunits from the bacterial ribosome (prepared from E. coli MRE600), or S30 extract (purchased from Promega); 50 μM CCA-Met-Biotin or tRNA-Met-Biotin; trace amounts of ^32P-CCA-NH-Phe (˜0.5 nM); 100 μM antibiotic in the presence of 50 mM Tris•HCl (pH 7.5); 35 mM MgCl2; 100 mM NH4Cl; and 1000 mM KCl, at 37° C. For each reaction, the same amount of 50S or 70S (10 pmol) was included, but the S30 concentration was not determined.
(§2) Reactions were initiated by addition of ^32P-CCA-NH-Phe. A 1-μL aliquot of the reaction mixture was removed at specific time points, quenched with 2 μL quench buffer (formamide +0.05% xylene cyanol), and loaded on 24%/7.5 M urea polyacrylamide denaturing gel.
(§3) The substrates used in these reactions were CCA-Met-Biotin and ^32P-CCA-NH-Phe. The lower band corresponds to the labeled ^32P-CCA-NH-Phe and the top band is the dipeptide product (^32P-CCA-NH-Phe-Met-Biotin).

[2] = tested on: 70S ribosome peptidyltransferase; experiment: Peptidyltransferase activity assay in the presence of antibiotics, 70S ribosome; settings: 100 μM antibiotic; 70S versus 50S
Protocol: as §1, §2, §3
(§4) Reaction conditions for these studies were the same as described above.

[3] = tested on: 50S ribosome peptidyltransferase; experiment: Peptidyltransferase activity assay in the presence of antibiotics, 50S ribosome; settings: 100 μM antibiotic, tRNA-Met-Biotin versus CCA-Met-Biotin substrate
Protocol: as §1
Reactions were initiated by addition of ^32P-CCA-NH-Phe. A 1-μL aliquot of the reaction mixture was removed at specific time points, quenched with 2 μL quench buffer (formamide +0.05% xylene cyanol), and loaded on 24%/7.5 M urea polyacrylamide denaturing gel. Reaction products were quantitated with a Molecular Dynamics PhosphorImager™, and the fraction of individual product relative to total reactants was plotted against time (see FIGS. 11-14).
as §4

| Structure (SMILES) | Inhibition of peptidyltransferase activity (gel-shift, FIG. 10A) [1] | Inhibition of 70S reactions compared with 50S reactions [2] | Effect on activity of 50S-tRNA compared with 50S-CCA [3] |
| --- | --- | --- | --- |
| O=C(N[C@H](CO)[C@H](O)c1ccc([N+](=O)[O-])cc1)C(Cl)Cl [chloramphenicol] | greatly inhibited | – | – |
| CC[C@H]1OC(=O)[C@H](C)[C@@H](O[C@H]2C[C@@](C)(OC)[C@@H](O)[C@H](C)O2)[C@H](C)[C@@H](O[C@@H]2O[C@H](C)C[C@H](N(C)C)[C@H]2O)[C@](C)(O)C[C@@H](C)C(=O)[C@H](C)[C@@H](O)[C@]1(C)O [erythromycin] | greatly inhibited | much more strongly than 50S reactions | – |
| COc1ccc(C[C@H](N)C(=O)N[C@H]2[C@@H](O)[C@H](n3cnc4c(N(C)C)ncnc43)O[C@@H]2CO)cc1 [puromycin] | does not significantly inhibit | much more strongly than 50S reactions | – |
| CSC[S@+]([O-])C[C@H](CO)NC(=O)/C=C/c1c(C)[nH]c(=O)[nH]c1=O [sparsomycin] | greatly inhibited | – | much less unaffected than that of 50S-CCA |
| [H]/N=C(/N)N[C@H]1[C@H](O)[C@@H](O)[C@H](O[C@@H]2O[C@@H](C)[C@](O)(C=O)[C@H]2O[C@@H]2O[C@@H](CO)[C@H](O)[C@@H](O)[C@@H]2NC)[C@@H](N/C(N)=N\[H])[C@@H]1O [streptomycin] | not inhibited | – | – |
